For orientation: ΔTm means the shift of the melting midpoint relative to a reference. The term IC50 denotes the point on the concentration scale where inhibition reaches its midpoint.

Where only a bound is given, the exact number is not on record here.

We go through four compounds from ChEMBL document CHEMBL5096149, “Recent Update on Targeting c-MYC G-Quadruplexes by Small Molecules for Anticancer Therapeutics” (J Med Chem, 2021).

The subject of data set [1] is Quadruplex DNA. In words: Binding affinity to c-MYC G-quadruplex DNA (unknown origin) assessed as association constant by fluorescence spectroscopy. The data set is classed as nucleic-acid assay.
For data set [2], the system named is Quadruplex DNA. In words: Thermal stabilization of c-MYC G-quadruplex DNA (unknown origin) assessed as change in melting temperature at 1:5 ratio by FRET melting assay. The data set is classed as nucleic-acid assay.
Data set [3] has as its system HeLa. In words: Antiproliferative activity against human HeLa cells assessed as inhibition of cell growth by XTT assay. The data set is classed as functional, cell-based. (In general: Tetrazolium dyes change colour on reduction, which living cells bring about.)
A further data set concerns A549. Kind of data set: Antiproliferative activity against human A549 cells assessed as inhibition of cell growth by XTT assay. In kind it is functional, cell-based.
Data set [4] can be described thus: Antiproliferative activity against human Kidney epithelial cells assessed as inhibition of cell growth by XTT assay. In kind it is toxicity, cell-based.
The test system of data set [5] is Quadruplex DNA. In words: Binding affinity to c-MYC G-quadruplex DNA (unknown origin) assessed as association rate constant by isothermal titration calorimetry method. The data set is classed as nucleic-acid assay. In general terms: ITC needs no label: the signal is the heat of the interaction.
The next data set has as its system MCF7. In words: Antiproliferative activity against human MCF7 cells assessed as inhibition of cell growth by XTT assay. In kind it is functional, cell-based.
A further data set deals with HT-1080. In words: Antiproliferative activity against human HT-1080 cells assessed as inhibition of cell growth by celltiter-glo luminescent cell viability assay. In kind it is functional, cell-based. In general terms: Cellular ATP, detected with luciferase, serves as a proxy for viable cell number.
The next data set concerns L-363. Kind of data set: Cytotoxicity against human L-363 cells assessed as inhibition of cell viability incubated for 72 hrs by MTS assay. The settings on record: L-363, 72 h. In kind it is functional, cell-based.
Data set [6] in a line: Cytotoxicity against human ARD cells assessed as inhibition of cell viability incubated for 72 hrs by MTS assay. In kind it is functional, cell-based.
The nature of data set [7]: Cytotoxicity against human JIM1 cells assessed as inhibition of cell viability incubated for 72 hrs by MTS assay. The data set is classed as functional, cell-based. The note with it: JIM1, 72 h.
Data set [8] in a line: Cytotoxicity against human KMM-1 cells assessed as inhibition of cell viability incubated for 72 hrs by MTS assay. In kind it is functional, cell-based. The note with it: KMM-1, 72 h.
The subject of another data set is KMS-12-PE. In words: Cytotoxicity against human KMS-12-PE cells assessed as inhibition of cell viability incubated for 72 hrs by MTS assay. In kind it is functional, cell-based.
Data set [9] is described as follows: Cytotoxicity against human KMS-27 cells assessed as inhibition of cell viability incubated for 72 hrs by MTS assay. In kind it is functional, cell-based. The settings on record: KMS-27, 72 h.
In another data set the test system is AMO1. In words: Cytotoxicity against human AMO1 cells assessed as inhibition of cell viability incubated for 72 hrs by MTS assay. The data set is classed as functional, cell-based. The settings on record: AMO1, 72 h.
For data set [10], the system named is Quadruplex DNA. Kind of data set: Binding affinity to c-MYC G-quadruplex DNA (unknown origin) assessed as association rate constant by surface plasmon resonance analysis. In kind it is nucleic-acid assay.
In data set [11] the test system is Quadruplex DNA. In words: Thermal stabilization of c-MYC G-quadruplex DNA (unknown origin) assessed as change in melting temperature at 1:4 ratio by circular dichroism spectroscopy. In kind it is nucleic-acid assay.
Data set [12] is described as follows: Cytotoxicity against human OPM-1 cells assessed as inhibition of cell viability incubated for 72 hrs by MTS assay. In kind it is functional, cell-based. The note with it: OPM-1, 72 h.
Data set [13] in a line: Cytotoxicity against human Karpas-417 cells assessed as inhibition of cell viability incubated for 72 hrs by MTS assay. The data set is classed as functional, cell-based. The settings on record: Karpas-417, 72 h.
The next data set has as its system NCI-H929. Kind of data set: Cytotoxicity against human NCI-H929 cells assessed as inhibition of cell viability incubated for 72 hrs by MTS assay. In kind it is functional, cell-based. The note with it: NCI-H929, 72 h.
The test system of the next data set is CA46. Kind of data set: Cytotoxicity against human CA46 cells assessed as inhibition of cell viability incubated for 72 hrs by MTS assay. The data set is classed as functional, cell-based. The note with it: CA46, 72 h.
Data set [14] in a line: Cytotoxicity against human HEK293T cells assessed as inhibition of cell viability incubated for 72 hrs by MTS assay. The data set is classed as toxicity, cell-based, HEK-293T.
A short description of data set [15]: Cytotoxicity against human Fibroblast cells assessed as inhibition of cell viability incubated for 72 hrs by MTS assay. In kind it is toxicity, cell-based.
Data set [16] relates to Quadruplex DNA. In words: Binding affinity to human c-MYC G-quadruplex (Pu24T) DNA assessed as first order binding constant by isothermal titration calorimetry method. In kind it is nucleic-acid assay.
Data set [17] deals with Quadruplex DNA. In words: Binding affinity to human c-MYC G-quadruplex (Pu24T) DNA assessed as second order binding constant by isothermal titration calorimetry method. In kind it is nucleic-acid assay.
Data set [18] has as its system Quadruplex DNA. Kind of data set: Binding affinity to human c-MYC G-quadruplex (Pu24T) DNA assessed as first order binding constant by fluorescence spectroscopy. The data set is classed as nucleic-acid assay.
For data set [19], the system named is Quadruplex DNA. Kind of data set: Binding affinity to human c-MYC G-quadruplex (Pu24T) DNA assessed as second order binding constant by fluorescence spectroscopy. The data set is classed as nucleic-acid assay.
For data set [20], the system named is Quadruplex DNA. In words: Thermal stabilization of human c-MYC G-quadruplex (Pu24T) DNA assessed as change in melting temperature at 1:2 ratio by circular dichroism spectroscopy. In kind it is nucleic-acid assay.
The test system of data set [21] is HeLa. In words: Cytotoxicity against human HeLa cells assessed as inhibition of cell viability incubated for 48 hrs by MTT assay. In kind it is functional, cell-based.
The nature of data set [22]: Cytotoxicity against human HEK cells assessed as inhibition of cell viability incubated for 48 hrs by MTT assay. The settings on record: HEK293, 48 h. In kind it is functional, cell-based.

Turning to `CN(C)CCCOc1cc(C(=O)NCc2cn(-c3cccc(NC(=O)C4CCCN4)c3)nn2)cc(C(=O)NCc2cn(-c3cccc(NC(=O)C4CCCN4)c3)nn2)c1` (stereo not drawn), the Ka in the data set with Quadruplex DNA [1] is 5.55 10^5/M; in the data set with Quadruplex DNA [5], 7 10^5/M. The ΔTm in the data set with Quadruplex DNA [2] is 15 °C. In addition, the IC50 in the data set with HeLa [3] was 8.3 µM; in the data set on A549, 9.2 µM; in data set [4], over 50 µM; with MCF7 it was 3.8 µM.

In the case of `CN(C)c1cccc2c(S(=O)(=O)N(Cc3cn(C(C)(C)C(=O)OC[C@H]4O[C@@H](n5cnc6c(=O)[nH]c(N)nc65)[C@@H]5OC(C)(C)O[C@@H]54)nn3)Cc3cn(C(C)(C)C(=O)OC[C@H]4O[C@@H](n5cnc6c(=O)[nH]c(N)nc65)[C@@H]5OC(C)(C)O[C@@H]54)nn3)cccc12`, the Ka in the data set with Quadruplex DNA [1] was 4.8 10^7/M. In addition, the ΔTm in the data set with Quadruplex DNA [2] is 12.6 °C. Besides, the IC50 in the data set with HT-1080 was determined as 18.9 µM.

`Cc1oc2ccc(O)c(CN3CCCCCC3)c2c1C(=O)Nc1ccc(C(F)(F)F)cc1`: the Ka was 1.06 10^5/M in the data set with Quadruplex DNA [1] and 7.14 10^5/M in the data set with Quadruplex DNA [10]. The IC50 in the data set on L-363 stood at 3.4 µM; in data set [6] it was 5.75 µM; in data set [7] it was 6.35 µM; in data set [8] it was 4.13 µM; with KMS-12-PE it was 5.3 µM; in data set [9], 5.06 µM. Also, the IC50 with AMO1 was 5.92 µM; in data set [12] it was 6.48 µM; in data set [13], 4.8 µM; with NCI-H929, 4.89 µM; in the data set with CA46 it was 9.2 µM. The ΔTm in the data set on Quadruplex DNA [11] worked out at 7.5 °C. Moreover, the IC50 at 72 h in data set [14] worked out at 34 µM; in data set [15], 19.6 µM.

Turning to `O=c1c(O)c(-c2ccc(O)c(O)c2)oc2cc(O)cc(O)c12` [QUERCETIN], the K is 1.57 10^7/M in the data set with Quadruplex DNA [16], 8.5 10^5/M with Quadruplex DNA [17], 0.72 10^7/M with Quadruplex DNA [18] and 1.2 10^5/M in the data set with Quadruplex DNA [19]. In addition, the ΔTm with Quadruplex DNA [20] was 10.3 °C. In addition, the IC50 with HeLa [21] amounted to 4 µM; in [22] it was 0.12 µM.
